Here are results for 4 compounds from the NIST ThermoML archive (doi:10.1021/acs.jced.7b00452).

Data set [1] in a line: mn = molality of the nth substance listed, in mol/kg. Conditions: 101.3 kPa, Liquid; for speed of sound: Single path-length method; for mass density: Vibrating tube method.
For data set [2] the following is noted: 318.15 K; 101.3 kPa; Liquid; Single path-length method.

Numbers after ± are expanded uncertainties.

As to `O` [water] + CCN(CC)CCNC(=O)c1ccc(N)cc1.Cl, the speed of sound in data set [1] (318.15 K, m2 = 0) worked out at 1536.7 ± 1 m/s.

Turning to `C[C@H](N)C(=O)O` [(S)-2-aminopropanoic acid] + O, the speed of sound came to 1498.8 ± 1 m/s in data set [1] (298.15 K, m1 = 0.025); 1500 ± 1 m/s in data set [1] (298.15 K, m1 = 0.05); 1521.6 ± 1 m/s in data set [1] (308.15 K, m1 = 0.025); 1522.7 ± 1 m/s in data set [1] (308.15 K, m1 = 0.05); 1538 ± 1 m/s in data set [1] (318.15 K, m1 = 0.025); 1539.2 ± 1 m/s in data set [1] (318.15 K, m1 = 0.05). The mass density in data set [1] (298.15 K, m1 = 0.025) is recorded as 997.765 ± 0.1 kg/m3; in data set [1] (298.15 K, m1 = 0.05), 998.484 ± 0.1 kg/m3; in data set [1] (308.15 K, m1 = 0.025) it was 994.741 ± 0.1 kg/m3; in data set [1] (308.15 K, m1 = 0.05) it was 995.466 ± 0.1 kg/m3; in data set [1] (318.15 K, m1 = 0.025), 990.91 ± 0.11 kg/m3; in data set [1] (318.15 K, m1 = 0.05), 991.637 ± 0.11 kg/m3.

`O` [water]: the speed of sound in data set [2] is recorded as 1536.7 ± 1 m/s.

Consider `CC(C)[C@H](N)C(=O)O` [L-valine] + O, for which the speed of sound in data set [1] (298.15 K, m1 = 0.025) was 1498.9 ± 1 m/s; in data set [1] (298.15 K, m1 = 0.05), 1501.7 ± 1 m/s; in data set [1] (308.15 K, m1 = 0.025) it was 1521.7 ± 1 m/s; in data set [1] (308.15 K, m1 = 0.05), 1524.2 ± 1 m/s; in data set [1] (318.15 K, m1 = 0.025), 1537.7 ± 1 m/s; in data set [1] (318.15 K, m1 = 0.05) it was 1540.2 ± 1 m/s. In addition, the mass density came to 997.706 ± 0.1 kg/m3 in data set [1] (298.15 K, m1 = 0.025); 998.248 ± 0.1 kg/m3 in data set [1] (298.15 K, m1 = 0.05); 994.661 ± 0.1 kg/m3 in data set [1] (308.15 K, m1 = 0.025); 995 ± 0.1 kg/m3 in data set [1] (308.15 K, m1 = 0.05); 990.798 ± 0.1 kg/m3 in data set [1] (318.15 K, m1 = 0.025); 991.103 ± 0.1 kg/m3 in data set [1] (318.15 K, m1 = 0.05).
